Measured values published in patent publication US12252524B2, “GIP/GLP1 co-agonist compounds” (Eli Lilly and Company, priority 2018, dated 2025).
Numbered stars: 1 amine (or outer) side, 2 acyl side, 3 side chain; on linkers, the order of the positions; unused ones are H or OH. Square brackets hold non-standard residues; d marks the D form. Side chains are listed from the residue outwards. Peptide text beside a SMILES is read from it. * marks the point of attachment. C20 diacid = O=C(O)CCCCCCCCCCCCCCCCCCC(=O)*; γGlu = O=C(O)[C@H](CCC(=O)[*:2])N[*:1]; AEEA = NCCOCCOCC(=O)O; Aib = CC(C)(N)C(=O)O

How the values were obtained:
[1] = biological target: T1, gastric inhibitory peptide receptor (GIPR) (Homo sapiens, UniProt P48546); test: cAMP pharmacological functional assay in presence of casein, hGIPR; assay type: cell-based; conditions: HEK293 cells expressing hGIPR, 0.1% Casein, geometric mean; read-out: hGIPR cAMP Rel EC50 nM (SEM, n)
T1 sequence (P48546 22-466): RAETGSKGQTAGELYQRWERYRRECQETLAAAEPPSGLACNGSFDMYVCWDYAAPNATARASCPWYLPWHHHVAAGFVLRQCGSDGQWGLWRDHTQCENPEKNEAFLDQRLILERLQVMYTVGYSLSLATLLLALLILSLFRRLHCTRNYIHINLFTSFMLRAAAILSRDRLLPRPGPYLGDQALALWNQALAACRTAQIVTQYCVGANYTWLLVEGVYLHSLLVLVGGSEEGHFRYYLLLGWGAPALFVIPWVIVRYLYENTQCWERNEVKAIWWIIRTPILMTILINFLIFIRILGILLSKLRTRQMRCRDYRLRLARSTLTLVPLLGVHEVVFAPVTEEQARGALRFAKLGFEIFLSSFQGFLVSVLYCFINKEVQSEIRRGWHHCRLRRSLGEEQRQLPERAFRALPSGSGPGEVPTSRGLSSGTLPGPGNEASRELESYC

[2] = biological target: human GLP-1 receptor (GLP-1R) (Homo sapiens, UniProt P43220); test: cAMP pharmacological functional assay in presence of casein, hGLP-1R; assay type: cell-based; conditions: HEK293 cells expressing hGLP-1R, 0.1% Casein, geometric mean; read-out: hGLP1R cAMP Rel EC50 nM (SEM, n)
Chain of human GLP-1 receptor (GLP-1R) (P43220 24-463): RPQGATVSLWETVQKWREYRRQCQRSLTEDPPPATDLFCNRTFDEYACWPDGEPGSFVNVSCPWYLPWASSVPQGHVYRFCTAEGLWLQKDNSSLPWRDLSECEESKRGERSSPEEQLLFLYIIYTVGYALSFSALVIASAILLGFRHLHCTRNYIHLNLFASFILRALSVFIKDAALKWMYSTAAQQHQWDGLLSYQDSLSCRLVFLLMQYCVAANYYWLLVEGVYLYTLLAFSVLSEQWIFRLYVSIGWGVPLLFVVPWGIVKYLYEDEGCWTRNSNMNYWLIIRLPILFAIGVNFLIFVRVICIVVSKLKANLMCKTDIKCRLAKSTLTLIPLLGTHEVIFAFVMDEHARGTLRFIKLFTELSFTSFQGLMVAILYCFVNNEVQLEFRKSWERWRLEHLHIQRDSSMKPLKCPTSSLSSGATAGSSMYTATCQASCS

SMILES | EC50 [1] | EC50 [2]
CC[C@H](C)[C@H](NC(=O)[C@H](CC(C)C)NC(=O)[C@H](Cc1ccc(O)cc1)NC(=O)[C@H](CCC(=O)O)NC(=O)[C@@H](NC(=O)[C@H](Cc1ccccc1)NC(=O)[C@H](C)NC(=O)C(C)(C)NC(=O)[C@H](CCC(N)=O)NC(=O)[C@H](C)NC(=O)[C@H](CCCCNC(=O)COCCOCCNC(=O)COCCOCCNC(=O)CC[C@H](NC(=O)CCCCCCCCCCCCCCCCCCC(=O)O)C(=O)O)NC(=O)[C@H](CCC(=O)O)NC(=O)[C@H](CC(=O)O)NC(=O)[C@H](CC(C)C)NC(=O)[C@H](CC(C)C)NC(=O)[C@@H](NC(=O)[C@H](CO)NC(=O)[C@H](Cc1ccc(O)cc1)NC(=O)[C@H](CC(=O)O)NC(=O)[C@H](CO)NC(=O)[C@@H](NC(=O)[C@H](Cc1ccccc1)NC(=O)[C@@H](NC(=O)CNC(=O)[C@H](CCC(=O)O)NC(=O)C(C)(C)NC(=O)[C@@H](N)Cc1ccc(O)cc1)[C@@H](C)O)[C@@H](C)O)[C@@H](C)CC)[C@@H](C)CC)C(=O)N[C@@H](CCC(=O)O)C(=O)NCC(=O)NCC(=O)N1CCC[C@H]1C(=O)N[C@@H](CO)C(=O)N[C@@H](CO)C(=O)NCC(=O)N[C@@H](C)C(=O)N1CCC[C@H]1C(=O)N1CCC[C@H]1C(=O)N1CCC[C@H]1C(=O)N[C@@H](CO)C(N)=O [Example 259] (H-Y[Aib]EGTFTSDYSILLDEK([AEEA-AEEA-γGlu-C20 diacid])AQ[Aib]AFIEYLIEGGPSSGAPPPS-NH2; N-terminus assumed) | 0.257 nM | 0.145 nM
CC[C@H](C)[C@H](NC(=O)[C@H](CC(C)C)NC(=O)[C@H](Cc1ccc(O)cc1)NC(=O)[C@H](CCC(=O)O)NC(=O)[C@@H](NC(=O)[C@H](Cc1ccccc1)NC(=O)[C@H](C)NC(=O)C(C)(C)NC(=O)[C@H](CCC(N)=O)NC(=O)[C@H](C)NC(=O)[C@H](CCCCNC(=O)COCCOCCNC(=O)COCCOCCNC(=O)CC[C@H](NC(=O)CCCCCCCCCCCCCCCCCCC(=O)O)C(=O)O)NC(=O)[C@H](CCCCN)NC(=O)[C@H](CC(=O)O)NC(=O)[C@H](CC(C)C)NC(=O)[C@H](CC(C)C)NC(=O)[C@@H](NC(=O)[C@H](CO)NC(=O)[C@H](Cc1c[nH]cn1)NC(=O)[C@H](CC(=O)O)NC(=O)[C@H](CO)NC(=O)[C@@H](NC(=O)[C@H](Cc1ccccc1)NC(=O)[C@@H](NC(=O)CNC(=O)[C@H](CCC(=O)O)NC(=O)C(C)(C)NC(=O)[C@@H](N)Cc1ccc(O)cc1)[C@@H](C)O)[C@@H](C)O)[C@@H](C)CC)[C@@H](C)CC)C(=O)N[C@@H](CCC(=O)O)C(=O)NCC(=O)NCC(=O)N1CCC[C@H]1C(=O)N[C@@H](CO)C(=O)N[C@@H](CO)C(=O)NCC(=O)N[C@@H](C)C(=O)N1CCC[C@H]1C(=O)N1CCC[C@H]1C(=O)N1CCC[C@H]1C(=O)N[C@@H](CO)C(N)=O [Example 260] (H-Y[Aib]EGTFTSDHSILLDKK([AEEA-AEEA-γGlu-C20 diacid])AQ[Aib]AFIEYLIEGGPSSGAPPPS-NH2; N-terminus assumed) | 0.617 nM | 0.408 nM
